# Ends that are not written are not given here.
# T1: Angiotensin Converting Enzyme (ACE) from rabbit lung (rabbit) (UniProt P12822)
# T1 sequence: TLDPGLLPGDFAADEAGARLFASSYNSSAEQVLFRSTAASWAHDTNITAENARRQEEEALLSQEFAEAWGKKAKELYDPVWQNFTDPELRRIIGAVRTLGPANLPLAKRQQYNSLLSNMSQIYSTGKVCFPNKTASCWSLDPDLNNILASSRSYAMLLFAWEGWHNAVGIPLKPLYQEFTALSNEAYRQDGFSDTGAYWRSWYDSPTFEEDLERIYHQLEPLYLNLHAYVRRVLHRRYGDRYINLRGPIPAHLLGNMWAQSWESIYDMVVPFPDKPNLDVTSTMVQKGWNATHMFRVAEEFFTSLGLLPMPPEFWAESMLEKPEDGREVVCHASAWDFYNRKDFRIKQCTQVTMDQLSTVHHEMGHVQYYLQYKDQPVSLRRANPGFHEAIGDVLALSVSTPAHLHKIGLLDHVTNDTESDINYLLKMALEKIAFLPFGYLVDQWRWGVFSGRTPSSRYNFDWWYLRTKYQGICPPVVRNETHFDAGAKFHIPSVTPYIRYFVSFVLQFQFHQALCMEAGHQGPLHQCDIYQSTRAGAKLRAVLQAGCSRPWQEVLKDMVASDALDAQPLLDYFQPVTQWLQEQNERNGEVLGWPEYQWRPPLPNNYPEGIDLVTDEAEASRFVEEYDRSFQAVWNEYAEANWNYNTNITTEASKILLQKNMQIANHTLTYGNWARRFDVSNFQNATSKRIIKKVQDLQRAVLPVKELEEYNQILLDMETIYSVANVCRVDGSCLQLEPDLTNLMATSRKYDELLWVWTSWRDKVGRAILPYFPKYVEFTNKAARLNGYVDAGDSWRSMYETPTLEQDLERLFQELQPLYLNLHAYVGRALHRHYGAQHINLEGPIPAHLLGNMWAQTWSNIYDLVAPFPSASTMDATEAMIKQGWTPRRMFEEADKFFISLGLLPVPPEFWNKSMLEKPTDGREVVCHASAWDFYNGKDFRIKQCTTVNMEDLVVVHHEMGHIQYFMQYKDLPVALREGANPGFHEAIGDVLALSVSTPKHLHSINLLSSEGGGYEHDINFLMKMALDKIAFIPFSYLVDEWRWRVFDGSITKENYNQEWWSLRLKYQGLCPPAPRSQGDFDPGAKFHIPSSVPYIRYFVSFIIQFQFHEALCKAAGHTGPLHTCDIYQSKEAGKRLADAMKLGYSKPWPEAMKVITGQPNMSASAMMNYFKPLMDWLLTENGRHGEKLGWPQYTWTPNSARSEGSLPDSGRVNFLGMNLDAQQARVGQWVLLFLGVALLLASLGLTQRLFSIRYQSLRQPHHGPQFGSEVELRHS
# T2: Angiotensin Converting Enzyme (ACE) from rabbit lung (Oryctolagus cuniculus, UniProt P12822)
# T2 construct: Angiotensin Converting Enzyme (ACE) from rabbit lung; purchased Sigma-Aldrich (St. Louis, MO, USA); host or cells: rabbit lung (tissue-derived)
# T2 sequence (P12822 34-1310): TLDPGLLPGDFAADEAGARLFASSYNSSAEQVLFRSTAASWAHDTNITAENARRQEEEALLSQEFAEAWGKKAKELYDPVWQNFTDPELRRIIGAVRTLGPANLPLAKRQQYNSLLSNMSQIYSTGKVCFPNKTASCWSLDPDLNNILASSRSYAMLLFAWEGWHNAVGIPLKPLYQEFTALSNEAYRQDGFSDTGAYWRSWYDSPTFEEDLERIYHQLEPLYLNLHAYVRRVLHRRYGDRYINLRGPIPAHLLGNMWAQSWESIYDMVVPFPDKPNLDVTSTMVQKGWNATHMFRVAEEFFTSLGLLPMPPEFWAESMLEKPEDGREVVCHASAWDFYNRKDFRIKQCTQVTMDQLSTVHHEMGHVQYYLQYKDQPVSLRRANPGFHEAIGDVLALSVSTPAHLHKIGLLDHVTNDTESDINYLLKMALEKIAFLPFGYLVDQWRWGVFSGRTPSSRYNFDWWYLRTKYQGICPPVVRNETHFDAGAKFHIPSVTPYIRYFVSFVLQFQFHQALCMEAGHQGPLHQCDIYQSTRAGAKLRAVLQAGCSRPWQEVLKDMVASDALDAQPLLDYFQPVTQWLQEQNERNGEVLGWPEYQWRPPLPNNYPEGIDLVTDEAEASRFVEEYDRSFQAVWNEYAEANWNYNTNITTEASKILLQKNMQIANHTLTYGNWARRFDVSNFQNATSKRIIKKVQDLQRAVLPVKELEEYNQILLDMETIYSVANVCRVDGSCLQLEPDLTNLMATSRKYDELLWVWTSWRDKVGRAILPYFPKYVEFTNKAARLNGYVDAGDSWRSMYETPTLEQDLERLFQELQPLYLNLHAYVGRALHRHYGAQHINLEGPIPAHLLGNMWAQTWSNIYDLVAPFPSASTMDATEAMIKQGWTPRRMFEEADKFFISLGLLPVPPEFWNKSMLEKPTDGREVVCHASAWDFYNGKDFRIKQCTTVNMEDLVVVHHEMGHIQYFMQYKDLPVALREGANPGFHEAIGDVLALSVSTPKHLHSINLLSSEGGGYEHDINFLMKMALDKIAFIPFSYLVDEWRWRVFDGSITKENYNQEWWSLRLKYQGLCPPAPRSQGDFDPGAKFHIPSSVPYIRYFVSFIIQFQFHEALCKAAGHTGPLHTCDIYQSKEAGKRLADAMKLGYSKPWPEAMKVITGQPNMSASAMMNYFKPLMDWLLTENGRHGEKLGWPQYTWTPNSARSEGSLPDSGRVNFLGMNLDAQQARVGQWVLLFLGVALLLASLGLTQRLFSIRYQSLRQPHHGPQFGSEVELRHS
# Biological target: T1, Angiotensin Converting Enzyme (ACE) from rabbit lung (rabbit)
# Test: not given
# Settings: not given
row,Molecule,"IC50 of ACE inhibitory activity (enzyme activity on HHL substrate, OPA fluorescence, 37 °C, pH 8.3) [μM]"
1,MPGVPGPIQR,54.8
2,HIGNILSL,36.7
3,INTLSGR,150
4,AFPAGAAHW,29

# Now from value to molecule:
row,"IC50 of ACE inhibitory activity (enzyme activity on HHL substrate, OPA fluorescence, 37 °C, pH 8.3) [μM]",Molecule
1,11.1,FMPGVPGPIQR
2,148,LAGNPAGR
3,3.6,GHIITVAR
4,68.5,AGALGDSVTVTR
5,19,PNYHPSPR
6,74.7,HIITLGR

# Biological target: T2, Angiotensin Converting Enzyme (ACE) from rabbit lung
# Test: ACE inhibitory activity assay (HHL substrate, OPA fluorescence)
# Format: biochemical
# Settings: chemically synthesized peptides identified from peak 4; mean ± SD, n = 3; read-out: IC50 Value inhibiting ACE activity
# Description: White sesame (Sesamum indicum L.) seeds were purchased from China Oil and Foodstuffs Corporation (Beijing, China). […] Pepsin (3000-3500 NFU/g), trypsin (250.N.F.U/mg), and α-chymotrypsin (1200 u/mg) were obtained from Solarbio Science and Technology Co., Ltd. (Beijing, China). Nanofiltration and ultrafiltration membranes were purchased from Rising Sun Membrane Technology Co., Ltd. (Beijing, China). All other reagents used in this study were of analytical grade. The ACE inhibitory activity was measured by using cary eclipse fluorescence spectrophotometer (Agilent Technologies Australia Pty Ltd., Mulgrave, Australia) according to a modified method of Li et al.. The sample was dissolved by distilled water to the appropriate concentration and the 96-well plate was used as the reaction vessel. Briefly, 30 μL of HHL substrate containing 0.3 mol/L NaCl in 50 mM borate buffer (pH 8.3) and 15 μL of samples were mixed. […] The reaction was stopped by using 125 μL of 1.2 mol/L NaOH. Finally, 30 μL of methanol solution containing 2% OPA was added, mixed evenly, and then stood at room temperature for 20 min. The derivative reaction was terminated by adding 40 μL of 6 mol/L HCl. The reaction solution was diluted 10 times and added into the fluorescence cell. The fluorescence absorption intensity was measured within 30–90 min. […] All assays were performed in triplicate. ACE inhibitory activity was calculated by using the following equation:ACE inhibitory activity (%) = [1 − (a−c)/(b−d)] × 100(2) where a is the fluorescence absorption intensity in the presence of both ACE and inhibitor, b is the fluorescence absorption intensity in the presence of ACE but not inhibitor, c is the fluorescence absorption intensity in the presence of inhibitor but not ACE, d is the fluorescence absorption intensity in the absence of both ACE and inhibitor.
row,Molecule,IC50 [µM]
1,AFPAGAAHW,29 ± 0.2
2,AGALGDSVTVTR,68.49 ± 0.14
3,GHIITVAR,3.6 ± 0.1
4,HIGNILSL,36.69 ± 0.33
5,MPGVPGPIQR,54.79 ± 0.37

# The next lines start with the values.
row,IC50 [µM],Molecule
1,11.1 ± 0.15,FMPGVPGPIQR
2,74.65 ± 0.13,HIITLGR [HIITLGR]
3,149.6 ± 0.33,INTLSGR [INTLSGR]
4,148.4 ± 0.35,LAGNPAGR
5,19 ± 0.26,PNYHPSPR

# Test system: ACE
# Test: not given
# Set-up: method as in doi:10.1007/s10989-015-9471-y
# Settings: peptide from sesame protein hydrolyzed by alcalase; ref [20]; cited from earlier work
row,Molecule,"IC50 value, ACE inhibition [mg/mL]"
1,YAHYSYA,0.6

# Same assay, conditions: peptide from sesame protein hydrolyzed by alcalase; ref [20]; read-out: IC50 value, ACE inhibition; cited from earlier work
row,Molecule,IC50 [µM]
1,YAHYSYA,687
